Publication PMC6017749, “Exploring N-acyl-4-azatetracyclo[5.3.2.0^2,6.0^8,10]dodec-11-enes as 11β-HSD1 Inhibitors” (Molecules : A Journal of Synthetic Chemistry and Natural …, 2018)
Where two headings read alike, the source gives them in different places.

How the values were obtained:
human 11β-HSD1 [1] = target: T1, human 11β-HSD1 (Homo sapiens, UniProt P28845); set-up: method as in PMID 21471376, PMID 26306982; conditions: previous inhibitors of the group; read-out: hHSD1 IC50; cited from earlier work
T1 construct: The assay uses human liver microsomes (HLM), where the enzyme is expressed; tissue Celsis In-vitro Technologies; host or cells: mixed sex human liver microsomes

human 11β-HSD2 [2] = target: T2, human 11β-HSD2 (Homo sapiens, UniProt P80365); conditions: cited from earlier work; for IC50: read-out: HEK hHSD2 IC50
T2 construct: stably transfected with the full-length gene coding for human 11β-HSD2; expressed in transfected cells; host or cells: HEK293
T2 sequence (P80365 1-405): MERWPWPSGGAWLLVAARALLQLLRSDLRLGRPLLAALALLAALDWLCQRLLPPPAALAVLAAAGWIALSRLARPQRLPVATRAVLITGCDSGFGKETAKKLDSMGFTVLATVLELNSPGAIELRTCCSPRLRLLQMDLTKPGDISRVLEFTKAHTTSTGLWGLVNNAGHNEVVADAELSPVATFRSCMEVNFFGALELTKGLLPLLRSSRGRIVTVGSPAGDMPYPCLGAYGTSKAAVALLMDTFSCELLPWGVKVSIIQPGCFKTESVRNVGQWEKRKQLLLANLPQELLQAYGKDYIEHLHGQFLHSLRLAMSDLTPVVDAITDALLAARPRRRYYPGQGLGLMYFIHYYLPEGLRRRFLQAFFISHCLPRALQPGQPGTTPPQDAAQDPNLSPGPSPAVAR

[3] = set-up: method as in PMID 21471376, PMID 26306982; conditions: remaining compound after 30-min incubation in human liver microsomes; cited from earlier work
mHSD1 = tested on: mHSD1; set-up: method as in PMID 21471376, PMID 26306982; conditions: murine enzyme; cited from earlier work
[4] = set-up: method as in PMID 21471376, PMID 26306982; conditions: remaining compound in mouse liver microsomes; cited from earlier work
[5] = tested on: Senescence-Accelerated Mouse Prone 8 (SAMP8); set-up: method as in PMID 28818766; conditions: 12-month-old SAMP8 mice, four weeks; cited from earlier work
human 11β-HSD1 [6] = target: T1, human 11β-HSD1; assay: 11β-HSD1 enzyme inhibition assay in human liver microsomes (3H-cortisone to 3H-cortisol, SPA); format: biochemical; conditions: human liver microsomes; for inhibition at 10 µM: relative to no inhibitor control, read-out: hHSD1 % inh at 10 µM; for IC50: read-out: hHSD1 IC50
Method: A preliminary screen was performed using a human microsome assay with compounds at 10 µM in order to assess their potential inhibition of the target enzyme (Table 2). Percentage of inhibition was determined by measuring the conversion of ^3H-cortisone to ^3H-cortisol by capturing liberated ^3H-cortisol on anti-cortisol (HyTest Ltd., Turku, Finland)-coated scintillation proximity assay beads. The assay uses human liver microsomes (HLM), where the enzyme is expressed, and NADPH as the cofactor needed by the enzyme. Eight of the thirteen new compounds presented 100% inhibition of the human 11β-HSD1 in this single concentration assay, so dose-response curves were performed to get their IC50 values.
11β-HSD1 activity was determined in mixed sex, human liver microsomes (HLM, Celsis In-vitro Technologies) by measuring the conversion of ^3H-cortisone to ^3H-cortisol. Percentage inhibition was determined relative to a no inhibitor control. An amount of 5 μg of HLM were pre-incubated at 37 °C for 15 min with inhibitor and 1 mM NADPH in a final volume of 90 μL Krebs buffer. 10 μL of 200 nM ^3H-cortisone was then added followed by incubation at 37 °C for a further 30 min. The assay was terminated by rapid freezing on dry ice and ^3H-cortisone to ^3H-cortisol conversion determined in 50 μL of the defrosted reaction by capturing liberated ^3H-cortisol on anti-cortisol (HyTest Ltd)-coated scintillation proximity assay beads (protein A-coated YSi, GE Healthcare). Reported values are the average of 1–3 measurements. A nanomolar 11β-HSD1 inhibitor, UE2316, was added as a positive control within in each set of assays.

human 11β-HSD1 [7] = target: T1, human 11β-HSD1; assay: Cellular 11β-HSD1 enzyme inhibition assay (HEK293 stably transfected, cortisol by LC/MS); format: cell-based; conditions: HEK293 transfected with human 11β-HSD1, read-out: HEK hHSD1 % inh at 10 µM
Method: Those compounds with submicromolar IC50 values (4, 6, 8, 9 and 16) were further evaluated in terms of cellular potency, selectivity over 11β-HSD2, and metabolic stability as follows (Table 2, 5th, 6th, and 7th column, respectively). Cellular potency was assessed using Human Embryonic Kidney 293 (HEK293) cells stably transfected with the 11β-HSD1 gene. Cells were incubated with substrate (cortisone) and percentage of inhibition was determined by measuring the conversion of cortisone to cortisol by LC/MS. The results were in line with the previous results obtained in the microsomal assay.
The cellular 11β-HSD1 enzyme inhibition assay was performed using HEK293 cells stably transfected with the human 11β-HSD1 gene. Cells were incubated with substrate (cortisone) and product (cortisol) was determined by LC/MS. Cells were plated at 2 × 10^4 cells/well in a 96-well poly-D-lysine coated tissue culture microplate (Greiner Bio-one, Monroe, NC, USA) and incubated overnight at 37 °C in 5% CO2 […]. Compounds to be tested were solubilized in 100% dimethylsulfoxide (DMSO) at 10 mM and serially diluted in water and 10% DMSO to final concentration of 10 µM in 10% DMSO. Then 10 µL of each test dilution and 10 µL of 10% DMSO (for low and high control) were dispensed into the well of a new 96-well microplate (Greiner Bio-one). Medium was removed from the cell assay plate and 100 µL of Dulbecco’s Modified Eagle’s Medium DMEM solution (containing 1% penicillin, 1% streptomycin and 300 nM cortisone) added to each well. Cells were incubated for 2 h at 37 °C in 5% CO2 […]. Following incubation, medium was removed from each well into an Eppendorf containing 500 µL of ethyl acetate, mixed by vortex and incubated at r.t. for 5 min. A calibration curve of known concentrations of cortisol in assay medium was also set up and added to 500 µL of ethyl acetate, vortexed and incubated as above. The supernatant of each Eppendorf was removed to a 96-deep-well plate and dried down under […] at 65 °C. Each well was solubilized in 100 µL 70:30 H2O:acetonitrile (ACN) and removed to a 96-well V-bottomed plate for LC/MS analysis. Separation was carried out on a Sunfire 150 × 2.1 mm, […] column using a H2O:ACN gradient profile. Typical retention times were 2.71 min for cortisol and 2.80 min for cortisone. The peak area was calculated and the concentration of each compound determined from the calibration curve. Reported values are the average of 1–3 measurements.

human 11β-HSD2 [8] = target: T2, human 11β-HSD2; assay: Cellular 11β-HSD2 enzyme inhibition assay (HEK293 stably transfected); format: cell-based; conditions: HEK293, 10 µM, HEK293 transfected with human 11β-HSD2; read-out: HEK hHSD2 % inh at 10 µM
Method: (§1) Selectivity over 11β-HSD2 was also assessed in a cell-based assay using the same methodology as before (HEK293 stably transfected with the 11β-HSD2 gene). […] Finally, metabolic stability was determined using HLM, which are widely used to predict the degree of primary metabolic clearance in the liver. Each compound was incubated over 30 min with HLM and the percentage of remaining compound after this incubation period was determined by calculating compound concentration after and before by LC/MS.
For measurement of inhibition of 11β-HSD2, HEK293 cells stably transfected with the full-length gene coding for human 11β-HSD2 were used. The protocol was the same as for the cellular 11β-HSD1 enzyme inhibition assay, only changing the substrate, this time cortisol, and the concentrations of the tested compounds, 10, 1, and 0.1 µM. Reported values are the average of 1–3 measurements.

[9] = Microsomal stability assay in human liver microsomes; format: in vitro ADME; conditions: remaining compound after 30-min incubation in HLM
Method: as §1
The microsomal stability of each compound was determined using human liver microsomes (HLM, Celsis In-vitro Technologies, Baltimore, MD, USA). Microsomes were thawed and diluted to a concentration of 2 mg/mL in 50 mM sodium phosphate buffer pH 7.4. Each compound was diluted in 4 mM NADPH (made in the phosphate buffer above) to a concentration of 10 µM. Two identical incubation plates were prepared to act as a 0 min and a 30 min time point assay. 30 µL of each compound dilution was added in duplicate to the wells of a U-bottom 96-well plate and warmed at 37 °C for approximately 5 min. Verapamil, lidocaine, and propranolol at 10 µM concentration were utilized as reference compounds in this experiment. Microsomes were also pre-warmed at 37 °C before the addition of 30 µL to each well of the plate resulting in a final concentration of 1 mg/mL. The reaction was terminated at the appropriate time point (0 or 30 min) by addition of 60 µL of ice-cold 0.3 M trichloroacetic acid (TCA) per well. The plates were centrifuged for 10 min at 112× g and the supernatant fraction transferred to a fresh U-bottom 96-well plate. Plates were sealed and frozen at −20 °C prior to MS analysis. LC-MS/MS was used to quantify the peak area response of each compound before and after incubation with HLM using MS tune settings established and validated for each compound. These peak intensity measurements were used to calculate the percentage remaining after incubation with HLM for each hit compound. Reported values are the average of 1–3 measurements.

[10] = HEK293 transfected with human 11β-HSD2

T1 sequence (P28845 whole entry): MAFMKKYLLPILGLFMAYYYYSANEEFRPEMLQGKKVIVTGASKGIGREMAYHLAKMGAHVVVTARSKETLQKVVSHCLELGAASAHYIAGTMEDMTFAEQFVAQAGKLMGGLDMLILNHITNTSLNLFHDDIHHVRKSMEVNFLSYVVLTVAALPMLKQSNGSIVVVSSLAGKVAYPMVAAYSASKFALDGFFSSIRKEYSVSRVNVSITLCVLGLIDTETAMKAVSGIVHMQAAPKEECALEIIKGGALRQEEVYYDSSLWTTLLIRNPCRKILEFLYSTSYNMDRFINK

Structure (SMILES): O=C(C1CCCCC1)N1CC2C3CCC(C4CC34)C2C1 (centres unmarked) [Compound 3]
- IC50 (human 11β-HSD1 [1]): 29 nM
- IC50 (human 11β-HSD2 [2]; [10]): 100 to 1000 nM
- HLM % Parent [3]: 94%
- IC50 (mHSD1): 81 nM
- MLM % Parent [4]: 93%
- effect on memory deficits [5]: prevented memory deficits
- neuroprotective action [5]: displayed a neuroprotective action through reduction of neuroinflammation and oxidative stress

Structure (SMILES): O=C(C1CCCCC1)N1CC2C3C=CC(C4CC34)C2C1 (centres unmarked) [Compound 2]
- inhibition at 10 µM (human 11β-HSD1 [6]): 100%
- IC50 (human 11β-HSD1 [6]): 19 nM
- inhibition at 10 µM (human 11β-HSD1 [7]): 100%
- inhibition at 10 µM (human 11β-HSD2 [8]): 69%
- HLM % Parent [9]: 27%
- selectivity index against 11β-HSD2 isoform (human 11β-HSD2 [2]; 11β-HSD2 versus 11β-HSD1): at least 50 fold
- IC50 (human 11β-HSD2 [2]; [10]): 1000 to 10000 nM
- HLM % Parent [3]: 27%

Structure (SMILES): CC(C)(C)C(=O)N1CC2C3C=CC(C4CC34)C2C1 (centres unmarked) [Compound 6, (4-Azatetracyclo[5.3.2. 0^2,6.0^8,10]dodec-11-en-4-yl)(tert-butyl)methanone]
- inhibition at 10 µM (human 11β-HSD1 [6]): 100%
- IC50 (human 11β-HSD1 [6]): 666 nM
- inhibition at 10 µM (human 11β-HSD1 [7]): 41%
- inhibition at 10 µM (human 11β-HSD2 [8]): 71%
- HLM % Parent [9]: 60%
- melting point: 91 to 92 °C

Structure (SMILES): O=C(NC1C2CC3CC(C2)CC1C3)C1CCCCC1 (centres unmarked) [Compound 1]
- HEK hHSD2 % inh 10 µM (human 11β-HSD2 [2]; 10 µM, HEK293 transfected with human 11β-HSD2): 88%
- HLM % Parent [3]: 74%
